The test system of test [1] is MOLM-13 cell line. Description: MOLM-13 cell proliferation assay (alamarBlue). It is filed as cell-based. The following applies: Homo sapiens, inhibition of proliferation of MOLM-13 cells (acute myeloid leukaemia), 96 hours incubation. Here is the method:
In accordance with the invention, the substances were tested for their ability to inhibit the proliferation of the MOLM-13 cell linie (Deutsche Sammlung für Mikroorganismen und Zellkulturen [German Collection of Microorganisms and Cell Cultures], ACC 554; acute myeloid leukaemia). Cell viability was determined by means of the alamarBlue® reagent (Invitrogen) in a Victor X3 Multilabel Reader (Perkin Elmer). The excitation wavelength was 530 nm and the emission wavelength […].
The MOLM-13 cells were sown at a density of 4000 cells/well in 100 μl of growth medium on 96-well microtitre plates. After overnight incubation at 37° C., the fluorescence values were determined (CI values). The plates were then treated with various substance dilutions and incubated at 37° C. for 96 hours. Subsequently, the fluorescence values were determined (CO values). For the data analysis, the CI values were subtracted from the CO values and the results were compared between cells which had been treated with various dilutions of the substance or only with buffer solution. The IC50 values (substance concentration needed for 50% inhibition of cell proliferation) were calculated therefrom.
A general note: The colour change of resazurin is a common sign of viable cells or microbes.

Test [2] has as its target T1, BRD4 bromo domain 2 [BRD4(2)] (Homo sapiens, UniProt O60885).
T1 construct: N-terminally His6-tagged BRD4(2) (amino acids 357-445); made in house; host or cells: E. coli
Nature of the test: BRD4(2)/acetylated peptide H4 binding assay (TR-FRET). The following applies: inhibition of interaction between His6-tagged BRD4(2) (amino acids 357-445) and acetylated histone H4 peptide. Put shortly:
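Compounds (0.1 nM to 20 μM, 11 points, duplicates) preincubated 10 min at 22 °C with 100 nM His6-tagged BRD4(2) residues 357-445, then Ac-H4-biotin peptide added; incubated 1 h at 22 °C and 3 h-overnight at 4 °C. Eu/XL665 emission ratio normalised to DMSO and no-protein controls; 4-parameter IC50.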

The target of test [3] is T2, BRD4 bromo domain 1 [BRD4(1)] (Homo sapiens, UniProt O60885).
T2 construct: N-terminally His6-tagged BRD4(1) (amino acids 67-152); made in house; host or cells: E. coli
Nature of the test: BRD4(1)/acetylated peptide H4 binding assay (TR-FRET). The following applies: inhibition of interaction between His6-tagged BRD4(1) (amino acids 67-152) and acetylated histone H4 peptide. In outline: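 IC50 came from a 4-parameter fit of the 665/620 nm emission ratio, normalised to DMSO and no-protein controls. His6-tagged BRD4(1) residues 67-152 (typically 10 nM final) was preincubated 10 min with compound (0.1 nM to 20 μM, duplicates), then exposed to Ac-H4-biotin peptide at 22 °C for 1 h and 4 °C for at least 3 h.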
On the technique in general: In TR-FRET formats the signal depends on donor and acceptor labels being close together.

The structures appear in SMILES notation.

For `COc1cc(Nc2ccc3c(n2)N(C2CCOCC2)[C@H](C)C(=O)N3C)ccc1S(=O)(=O)N1CCN(C)CC1` [Example 26, (3R)-6-({3-methoxy-4-[(4-methylpiperazin-1-yl)sulphonyl]phenyl}amino)-1,3-dimethyl-4-(tetrahydro-2H-pyran-4-yl)-3,4-dihydropyrido[2,3-b]pyrazin-2(1H)-one], the IC50 – broadly, the concentration at which inhibition is half-maximal – in test [1] amounted to 296 nM; in test [2], 67 nM; in test [3], 70 nM.
For `C[C@@H]1C(=O)N(C)c2ccc(Nc3ccc(S(=O)(=O)N(C)C)cc3)nc2N1C1CCOCC1` [Example 27, 4-{[(3R)-1,3-dimethyl-2-oxo-4-(tetrahydro-2H-pyran-4-yl)-1,2,3,4-tetrahydropyrido[2,3-b]pyrazin-6-yl]amino}-N,N-dimethylbenzene-sulphonamide], the IC50 in test [1] is 202 nM; in test [2] it was 38 nM; in test [3], 32 nM.
For `C[C@@H]1C(=O)N(C)c2ccc(Nc3ccc(C(=O)NC4CN(C)C4)cc3)nc2N1C1CCCCC1` [Example 30, 4-{[(3R)-4-Cyclohexyl-1,3-dimethyl-2-oxo-1,2,3,4-tetrahydropyrido[2,3-b]pyrazin-6-yl]amino}-N-(1-methylazetidin-3-yl)benzamide] the same measures were 293 nM, 140 nM and 119 nM.
Turning to `COc1cc(C(=O)N[C@H]2CC[C@H](N3CCN(CC4CC4)CC3)CC2)ccc1Nc1ccc2c(n1)N(Cc1ccccc1)[C@H](C)C(=O)N2C` [Example 34, 4-{[(3R)-4-Benzyl-1,3-dimethyl-2-oxo-1,2,3,4-tetrahydropyrido[2,3-b]pyrazin-6-yl]amino}-N-{trans-4-[4-(cyclopropylmethyl)piperazin-1-yl]cyclohexyl}-3-methoxybenzamide], the values for the IC50 in test [1], in test [2] and in test [3] were 338 nM, 104 nM and 256 nM, respectively.
On to `Cc1cc(C(=O)N[C@H]2CC[C@H](N3CCN(CC4CC4)CC3)CC2)ccc1Nc1ccc2c(n1)N(C1CCOCC1)[C@H](C)C(=O)N2C` [Example 37, N-{trans-4-[4-(Cyclopropylmethyl)piperazin-1-yl]cyclohexyl}-4-{[(3R)-1,3-dimethyl-2-oxo-4-(tetrahydro-2H-pyran-4-yl)-1,2,3,4-tetrahydropyrido[2,3-b]pyrazin-6-yl]amino}-3-methylbenzamide], for which the IC50 in test [1] stood at 859 nM; in test [2] it was 306 nM; in test [3], 347 nM.
For `COc1cc(C(=O)NC2CCC(=O)CC2)ccc1Nc1ccc2c(n1)N(C1CCOCC1)[C@H](C)C(=O)N2C` [Example 38, 4-{[(3R)-1,3-Dimethyl-2-oxo-4-(tetrahydro-2H-pyran-4-yl)-1,2,3,4-tetrahydropyrido[2,3-b]pyrazin-6-yl]amino}-3-methoxy-N-(4-oxocyclohexyl)benzamide] the same measures were 51 nM, 79 nM and 194 nM.
Take `C[C@@H]1C(=O)N(C)c2ccc(Nc3ccc(C(=O)N4CC5(COC5)C4)cc3)nc2N1Cc1ccccc1` [Example 41, (3R)-4-Benzyl-1,3-dimethyl-6-{[4-(2-oxa-6-azaspiro[3.3]hept-6-ylcarbonyl)phenyl]amino}-3,4-dihydropyrido[2,3-b]pyrazin-2(1H)-one]: the figures for the IC50 in test [1], in test [2] and in test [3] were 191 nM, 109 nM and 122 nM, respectively.
Turning to `C[C@@H]1C(=O)N(C)c2ccc(Nc3ccc(C(=O)NC4CCC(O)CC4)cc3)nc2N1Cc1ccccc1` (stereo partly drawn) [Example 42, 4-{[(3R)-4-Benzyl-1,3-dimethyl-2-oxo-1,2,3,4-tetrahydropyrido[2,3-b]pyrazin-6-yl]amino}-N-(4-hydroxycyclohexyl)benzamide], the IC50 in test [1] was determined as 326 nM; in test [2], 99 nM; in test [3], 156 nM.
Turning to `COc1cc(C(=O)N2CCN(C)CC2)ccc1Nc1ccc2c(n1)N(C1CCOCC1)[C@H](C)C(=O)N2C` [Example 45, (3R)-6-({2-Methoxy-4-[(4-methylpiperazin-1-yl)carbonyl]phenyl}amino)-1,3-dimethyl-4-(tetrahydro-2H-pyran-4-yl)-3,4-dihydropyrido[2,3-b]pyrazin-2(1H)-one], the IC50 in test [1] was determined as 539 nM; in test [2], 86 nM; in test [3], 77 nM.
For `C[C@@H]1C(=O)N(C)c2ccc(Nc3ccc(C(=O)NCCN(C)C)cc3)nc2N1C1CCOCC1` [Example 48, N-[2-(Dimethylamino)ethyl]-4-{[(3R)-1,3-dimethyl-2-oxo-4-(tetrahydro-2H-pyran-4-yl)-1,2,3,4-tetrahydropyrido[2,3-b]pyrazin-6-yl]amino}benzamide] the same measures were 583 nM, 167 nM and 103 nM.
In the same order, the values of `C[C@@H]1C(=O)N(C)c2ccc(Nc3ccc(C(=O)NC4CN(C)C4)cc3)nc2N1C1CCOCC1` [Example 50, 4-{[(3R)-1,3-Dimethyl-2-oxo-4-(tetrahydro-2H-pyran-4-yl)-1,2,3,4-tetrahydropyrido[2,3-b]pyrazin-6-yl]amino}-N-(1-methylazetidin-3-yl)benzamide] are 576 nM, 111 nM and 145 nM.
In the same order, the values of `C[C@@H]1C(=O)N(C)c2ccc(Nc3ccc(C(=O)NCCN4CCN(C)CC4)cc3)nc2N1C1CCOCC1` [Example 51, 4-{[(3R)-1,3-Dimethyl-2-oxo-4-(tetrahydro-2H-pyran-4-yl)-1,2,3,4-tetrahydropyrido[2,3-b]pyrazin-6-yl]amino}-N-[2-(4-methylpiperazin-1-yl)ethyl]benzamide] are 507 nM, 219 nM and 138 nM.
Take `COc1cc(C(=O)N2CCC(N3CCCCC3)CC2)ccc1Nc1ccc2c(n1)N(C1CCOCC1)[C@H](C)C(=O)N2C` [Example 53, (3R)-6-{[4-(1,4′-Bipiperidin-1′-ylcarbonyl)-2-methoxyphenyl]amino}-1,3-dimethyl-4-(tetrahydro-2H-pyran-4-yl)-3,4-dihydropyrido[2,3-b]pyrazin-2(1H)-one]: the IC50 in test [1] is 249 nM; in test [2], 94 nM; in test [3] it was 90 nM.
As to `COc1cc(C(=O)NC2CN(C)C2)ccc1Nc1ccc2c(n1)N(C1CCOCC1)[C@H](C)C(=O)N2C` [Example 55, 4-{[(3R)-1,3-Dimethyl-2-oxo-4-(tetrahydro-2H-pyran-4-yl)-1,2,3,4-tetrahydropyrido[2,3-b]pyrazin-6-yl]amino}-3-methoxy-N-(1-methylazetidin-3-yl)benzamide], the IC50 stood at 668 nM in test [1], 128 nM in test [2] and 215 nM in test [3].
`C[C@@H]1C(=O)N(C)c2ccc(Nc3ccc(C(=O)N[C@H]4CC[C@H](N5CCN(CC6CC6)CC5)CC4)cc3)nc2N1C1CCOCC1` [Example 57, N-{trans-4-[4-(Cyclopropylmethyl)piper-azin-1-yl]cyclohexyl}-4-{[(3R)-1,3-dimethyl-2-oxo-4-(tetrahydro-2H-pyran-4-yl)-1,2,3,4-tetrahydropyrido[2,3-b]pyrazin-6-yl]amino}benzamide]: the IC50 turned out to be 366 nM in test [1], 156 nM in test [2] and 139 nM in test [3].
`C[C@@H]1C(=O)N(C)c2ccc(Nc3ccc(C(=O)NC4CCN(C)CC4)cc3)nc2N1C1CCOCC1` [Example 58, 4-{[(3R)-1,3-Dimethyl-2-oxo-4-(tetrahydro-2H-pyran-4-yl)-1,2,3,4-tetrahydropyrido[2,3-b]pyrazin-6-yl]amino}-N-(1-methylpiperidin-4-yl)benzamide]: the IC50 in test [1] is 339 nM; in test [2], 134 nM; in test [3] it was 111 nM.
For `COc1cc(C(=O)NCCc2cccnc2)ccc1Nc1ccc2c(n1)N(C1CCOCC1)[C@H](C)C(=O)N2C` [Example 61, 4-{[(3R)-1,3-Dimethyl-2-oxo-4-(tetrahydro-2H-pyran-4-yl)-1,2,3,4-tetrahydropyrido[2,3-b]pyrazin-6-yl]amino}-3-methoxy-N-[2-(pyridin-3-yl)ethyl]benzamide] the same measures were 407 nM, 110 nM and 172 nM.
In the same order, the values of `COc1cc(C(=O)NC2CCC(N3CCC(F)(F)CC3)CC2)ccc1Nc1ccc2c(n1)N(C1CCOCC1)[C@H](C)C(=O)N2C` (stereo partly drawn) [Example 62, N-[4-(4,4-Difluoropiperidin-1-yl)cyclohexyl]-4-{[(3R)-1,3-dimethyl-2-oxo-4-(tetrahydro-2H-pyran-4-yl)-1,2,3,4-tetrahydropyrido[2,3-b]pyrazin-6-yl]amino}-3-methoxybenzamide] are 444 nM, 146 nM and 187 nM.

Values taken from patent US20160193206A1, “BET-PROTEIN-INHIBITING DIHYDROPYRIDOPYRAZINONES” (BAYER PHARMA AKTIENGESELLSCHAFT, priority 2012, published 2016).
